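Cultured in 96-well plates, cells were exposed to test compound for 48 hours across five concentrations. GI50: concentration for 50% inhibition of growth. TGI: total growth inhibition.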
How the values were obtained:
Experiment in all cases: NCI anticancer screen, dose series, 48 h
[1] = tested on: HCT-15 colon
[2] = tested on: HS 578T breast
[3] = tested on: SNB-19 CNS
[4] = tested on: SK-OV-3 ovarian
[5] = tested on: HT29 colon
[6] = tested on: MOLT-4 leukemia
[7] = tested on: CAKI-1 renal
[8] = tested on: MDA-N
[9] = tested on: MALME-3M melanoma
[10] = tested on: SF-295 CNS
[11] = tested on: COLO 205 colon

COc1cc(/C=c2\sc3n(c2=O)C(c2ccc(Cl)cc2)C2=C(CCCC2C)N=3)cc(OC)c1OC (configuration not stated)
TGI [1]: > 100 µM | TGI [2]: > 100 µM | TGI [3]: > 100 µM | TGI [4]: > 100 µM | TGI [5]: > 100 µM | TGI [6]: > 100 µM | TGI [7]: > 100 µM | TGI [8]: > 100 µM

COc1ccc(SCc2cc(OCc3ccccc3)c(OCc3ccccc3)c(OCc3ccccc3)c2)cc1
TGI [1]: 3.47 µM | TGI [9]: 3.37 µM | TGI [3]: 3.19 µM | TGI [4]: 3.18 µM | TGI [10]: 3.58 µM | TGI [11]: 8.21 µM | TGI [6]: 3.3 µM | TGI [7]: 3.02 µM | TGI [8]: 3.29 µM

CC(=O)c1cc2ccccc2oc1=O
TGI [1]: > 100 µM | TGI [9]: > 100 µM | TGI [2]: > 100 µM | TGI [3]: > 100 µM | TGI [5]: > 100 µM | TGI [10]: > 100 µM | TGI [11]: > 100 µM | TGI [6]: > 100 µM | TGI [7]: > 100 µM | TGI [8]: > 100 µM

CCOC(=O)c1ccc(NCC#CCN2CCCCC2)cc1
TGI [1]: > 100 µM | TGI [9]: > 100 µM | TGI [2]: > 100 µM | TGI [3]: > 100 µM | TGI [4]: > 100 µM | TGI [5]: > 100 µM | TGI [11]: > 100 µM | TGI [6]: > 100 µM | TGI [8]: > 100 µM

O=C(NNC(=S)NC1CCCCC1)c1csc(NC(=S)NC2CCCCC2)n1
TGI [1]: 14.5 µM | TGI [9]: 26 µM | TGI [3]: 44.8 µM | TGI [4]: 28.6 µM | TGI [5]: > 100 µM | TGI [10]: 19.7 µM | TGI [11]: 14.1 µM | TGI [6]: 25.5 µM | TGI [7]: 24.2 µM

BrC(c1cccc2ccccc12)c1cccc2ccccc12
TGI [1]: 42.5 µM | TGI [9]: 21.1 µM | TGI [3]: > 100 µM | TGI [5]: 35.8 µM | TGI [10]: 44.7 µM | TGI [6]: > 100 µM | TGI [7]: 50.1 µM | TGI [8]: 32.6 µM

COc1ccc(-c2cc3[nH]nc(N)c3c(=O)o2)cc1
TGI [1]: > 100 µM | TGI [9]: > 100 µM | TGI [3]: > 100 µM | TGI [5]: > 100 µM | TGI [10]: > 100 µM | TGI [11]: > 100 µM | TGI [6]: > 100 µM | TGI [7]: > 100 µM

Cc1cc(S(=O)(=O)Nc2nc3ccccc3c(=O)n2N)c(S)cc1Cl
TGI [1]: > 100 µM | TGI [9]: 56.9 µM | GI50 [3]: 15.7 µM | TGI [3]: 47.2 µM | TGI [4]: > 100 µM | TGI [5]: > 100 µM | TGI [10]: > 100 µM | TGI [11]: > 100 µM | TGI [6]: > 100 µM | TGI [7]: > 100 µM | TGI [8]: > 100 µM
